Literature values, collected in paper PMC2970821 (Clinical Proteomics, 2010).
Ends that are not written are not given here.

Settings: apparently generating ITIH4-25, ref [26]

In the case of RPGVLSSRQLGLPGPPDVPDHAAYHPF [ITIH4-27], the “Susceptibility to degradation of the synthetic peptide in plasma and serum” value is given as “highest susceptibility to degradation”.
